Measurements as given in a melting point compilation (Tetko et al.; mined from patent text by program, amines drawn as free bases though some values may be those of a salt).

First: CCc1ccc2c3c(ccc(C=O)c13)-c1ccccc1-2
Second: CSc1ccccc1-c1[nH]c2cccc3c2c1CCNC3=O
The melting point of the first is lower: 114 to 116 °C for the first, 271 to 272 °C for the second.

Compared with `CC(=Cc1ccc(C)cc1C)c1ccc2c(c1)C(C)(C)CCC2(C)C`, `Cc1ccc(C)c(C2C(=O)CC(C)(C)CC2=O)c1` is higher in melting point: 54 to 56 °C for the first, 168 to 170 °C for the second.

First: N#Cc1ccc(NC(=S)NCc2cccnc2)cc1
Second: O=C1CC[C@H](c2ccc(NC(=O)OCc3ccccc3)cc2)C1
The melting point of the first is higher: 181 °C for the first, 96.3 to 98.5 °C for the second.

First: CC(C)(C)OC(=O)N1CCC(c2ncc(-c3cnc(-c4ccccc4)nc3)[nH]2)C1 (centres undefined)
Second: NC(=O)C(Cc1ccccc1N1CCCCC1)c1ccc(C(=O)O)cc1 (centres undefined)
The melting point of the first is higher: 219 °C for the first, 175 to 177 °C for the second.

Compared with `Cc1cn(-c2cc([N+](=O)[O-])cc(C(F)(F)F)c2)cn1`, `Cc1nc(-c2cc(-n3c(=O)cc(C(F)(F)F)n(C)c3=O)ccc2Cl)sc1C` is higher in melting point: 118 to 119 °C for the first, 200 °C for the second.

First: CCCc1c(COc2ccc(Cc3nnn(CCCCCCc4nnn[nH]4)n3)cc2)ccc(C(C)=O)c1O
Second: CCCCCCCCCCCCc1nc(NC(=O)Nc2c(C(C)C)cccc2C(C)C)n[nH]1
The melting point of the first is lower: 110 to 113 °C for the first, 154 to 164 °C for the second.

First: CCC([O-])=C(C(=O)OC)N1C(=O)CC1[N+](CC)(CC)CC (centres undefined)
Second: CCc1c(C)c2c(c(O)c1C/C=C(\C)CCC(=O)OC)C(=O)OC2
The melting point of the first is lower: 109 to 110 °C for the first, 116 °C for the second.

First: COc1ccc(S(=O)(=O)Nc2c(Nc3ccccc3)ncnc2Nc2ccccc2)cc1
Second: Nc1ccc(Nc2ncnc3cc(-c4ccccc4)sc23)cc1
The melting point of the first is lower: 149 to 151 °C for the first, 210 to 211 °C for the second.

Compared with `O=C(NCC12CC3CC(CC(C3)C1)C2)c1cc(-c2ccccc2C(=O)O)ncc1Cl`, `O=C(Nc1ccc(-c2ccccc2Cl)[nH]c1=O)OCc1ccccc1` is higher in melting point: 134 to 138 °C for the first, 213 to 215 °C for the second.

First: Oc1nc2cc(F)c(F)cc2nc1O
Second: Cc1cccc2c(Cc3nc4c(F)c(F)cc(F)c4s3)cn(CC(=O)O)c12
The melting point of the first is higher: > 310 °C for the first, 216 to 218 °C for the second.

First: CC1(C)CCc2c(N3CCSCC3)nc3sc4c(NCc5ccncc5)ncnc4c3c2C1
Second: COc1ccc(-c2cc3nc(N4CCCCC4)c4ccccc4c3nn2)cc1
The melting point of the first is higher: 237 °C for the first, 168 to 169 °C for the second.

First: CC(C)OP(=O)(OCN1C(=O)c2c(C(C)C)cc(OCC(=O)OCc3ccccc3)cc2S1(=O)=O)OC(C)C
Second: CC(C)C[C@H](N)C(=O)NCCCCCNC(=O)OCc1ccccc1
The melting point of the first is lower: 93 to 94 °C for the first, 145 to 146 °C for the second.

First: COc1cc2c(cc1OC)C(=O)NC(=O)C2
Second: COc1cc2ncnc(Sc3cccc(O)c3)c2cc1OC
The melting point of the first is higher: 234 to 238 °C for the first, 221 to 230 °C for the second.

Going from `O=C(CC(=O)Nc1ccc2c(c1)NC(=O)C2)Nc1ccc(F)cc1` to `O=c1c(O)c(-c2nnc(Cc3ccc(F)cc3)o2)[nH]c2ccccc12`, the melting point rises from 221 °C to > 300 °C.

Compared with `Cn1c(C(F)(F)F)cc(=O)n(-c2cc(OCc3ccccc3Cl)c(Cl)cc2F)c1=O`, `Cn1c(C(F)(F)F)cc(=O)n(-c2c(F)cc(Cl)c3cc(CS(C)(=O)=O)oc23)c1=O` is higher in melting point: 126 to 129 °C for the first, 209 to 211 °C for the second.

First: CC(Cl)c1nc2ccccc2c(=O)o1 (centres undefined)
Second: Cc1sc(S(C)=O)nc1-c1ccccc1 (centres undefined)
The melting point of the first is lower: 90 °C for the first, 96 to 97 °C for the second.

First: O=C1NC(=O)C(c2ccc(-c3ccccc3)s2)O1 (centres undefined)
Second: O=C(O)C(=O)Cc1ccc(-c2ccccc2)cc1
The melting point of the first is higher: 233 to 235 °C for the first, 215 to 218 °C for the second.

First: O=C(NCCOc1ccc(CC(OCc2ccccc2)C(=O)O)cc1)c1ccc(-c2ccccn2)cc1 (centres undefined)
Second: O=C(O)C(=O)c1ccc(OCCOCCOc2ccccc2)cc1
The melting point of the first is higher: 138 to 139 °C for the first, 58 to 59 °C for the second.

First: CCN(CC)C(=O)n1cnc(S(=O)(=O)CC2CC2)n1
Second: O=C(O)CCCc1cc2cc(Cl)ccc2n1S(=O)(=O)c1ccc2c(c1)OCCO2
The melting point of the first is lower: 68 to 74 °C for the first, 131 to 134 °C for the second.

First: CCCNC(=O)C(C)NC(=O)C(NC(=O)OCc1ccccc1)C(Cc1ccccc1)C(=O)O (centres undefined)
Second: CC1(C)CC(=O)c2c(SCc3ccccc3)cn(-c3ccccn3)c2C1
The melting point of the first is lower: 169 to 171 °C for the first, 190 to 192 °C for the second.

First: N#Cc1ccc2c(c1)S(=O)c1ccc(F)cc1C=C2 (centres undefined)
Second: COc1cccc(S(=O)c2cccc(N)c2C#N)c1 (centres undefined)
The melting point of the first is higher: 240 to 243 °C for the first, 110 to 114 °C for the second.

First: Cc1nn(-c2ccc(F)cc2)cc1C(=O)N(CC(=O)O)c1ccc(N2CCC(O)CC2)c(C#N)c1
Second: CN1CCC(OC2c3cccc(-c4ccc(F)cc4)c3CCn3cc(-c4ccccc4)nc32)CC1 (centres undefined)
The melting point of the first is higher: 124 to 125 °C for the first, 95 °C for the second.

Compared with `COc1ccc(CN2CCc3cc(OCc4ccccc4)c(OC)cc3C2)cc1OC`, `COc1cc(Nc2c(C#N)cnc3cc(-c4cccc(CN5CCOCC5)c4)c(OC)cc23)c(Cl)cc1Cl` is higher in melting point: 98 to 99 °C for the first, 155 to 158 °C for the second.

First: CCCCCCCCCCCCCCCCOCC(CO)OCOC(C)=O (centres undefined)
Second: CCCCCCCCCCCCCCCCOCC(CO)OCCCCCCCCCCCCCC (centres undefined)
The melting point of the first is higher: 44 °C for the first, 42 to 43 °C for the second.

First: CC(=O)Nc1ccc(C(=O)O)c([N+](=O)[O-])c1
Second: O=C(O)c1ccc([N+](=O)[O-])c(C(=O)O)c1
The melting point of the first is lower: 217 to 220 °C for the first, 257 to 258 °C for the second.

Compared with `CCOC(=O)c1cc([N+](=O)[O-])ccc1OCc1ccc2ccccc2n1`, `O=C(COc1cc(-c2ccc(Cl)cc2)nc2ccccc12)N1CCOCC1` is higher in melting point: 139 to 140 °C for the first, 191 °C for the second.

First: CC(C)=CCN1Cc2c(Cl)ccc([N+](=O)[O-])c2NC[C@@H]1C
Second: Cc1c(C)c(N2CCN(c3ccc(C(N)=O)cc3)CC2)c(C)c2c1OC(C)C2 (centres undefined)
The melting point of the first is lower: 60 to 62 °C for the first, 240 to 245 °C for the second.

First: O=c1c(NCc2cccc(O)c2)c(Nc2ccc(O)c(-c3ccccn3)c2)c1=O
Second: O=C(NN=Cc1c(O)ccc2cc(O)ccc12)c1cc2ccccc2cc1O
The melting point of the first is lower: 271 to 272 °C for the first, > 280 °C for the second.

First: CCCCCCCCCC#CCCCCCCCCCCCO
Second: CCCCCCC(O)CCCCCCCC(COC(C)=O)(COC(C)=O)NC(C)=O (centres undefined)
The melting point of the first is lower: 38 to 39 °C for the first, 82 to 84 °C for the second.

Compared with `O=C(O)c1cccc(Cl)c1C(F)(F)F`, `CN(O)C(=O)NCCc1ccc(Cl)c(Cl)c1` is lower in melting point: 110 °C for the first, 108 to 109 °C for the second.

First: O=C(Nc1ccc2c(c1)c1ccccc1n2CCO)c1ccccc1Cl
Second: CCOC(=O)C=Cc1cc(OCc2ccccc2)ccc1-c1ccc(-c2cccc(C)c2)c(C(F)F)c1
The melting point of the first is higher: 168 to 169 °C for the first, 124 to 126 °C for the second.

Compared with `Cc1oc2cc(N)ccc2c(=O)c1C`, `O=c1c(-c2cccc(Cl)c2)coc2c(O)c(O)ccc12` is higher in melting point: 224 to 226 °C for the first, 258 °C for the second.

First: COc1ccc2cc(-c3ncn[nH]3)ccc2n1
Second: Cc1ccc(-c2nc(Cl)cc(N3CCN(C)CC3)n2)cc1
The melting point of the first is higher: 198 to 200 °C for the first, 93 to 95 °C for the second.

First: CS(=O)(=O)c1ccc(-c2cc(Cl)ccc2OCC(=O)O)cc1Cl
Second: COCCS(=O)(=O)c1ccc(F)c(C#Cc2cc(Cl)ccc2OCC(=O)O)c1
The melting point of the first is higher: 140 to 142 °C for the first, 125 to 128 °C for the second.

Compared with `Cc1cc(-c2cc(C(F)F)n3ncc(I)c3n2)ccc1Cl`, `Cc1cc(C(N)=O)ncc1C(c1c(F)ccc(F)c1F)S(=O)(=O)CCCO` (centres undefined) is higher in melting point: 144 °C for the first, 148 to 150 °C for the second.

First: Cc1ccc(C2N=C(c3ccccc3)NC3=C2CCc2c(-c4ccccc4)cc(-c4ccccc4)nc23)cc1 (centres undefined)
Second: Ic1cccc(-c2nnc(-c3ccc4ccccc4c3)o2)c1
The melting point of the first is lower: 128 to 133 °C for the first, 156 to 158 °C for the second.

First: CCOC(=O)N1CCN(Cc2ccc(O)c3ncccc23)CC1
Second: COc1ccc(N2CCN(CCC3OCCc4c(C(N)=O)cccc43)CC2)cc1 (centres undefined)
The melting point of the first is lower: 92 to 93 °C for the first, 185 to 186 °C for the second.

First: CC(C)NC1=NS(=O)(=O)c2cc(Br)cc(Br)c2N1
Second: CC(C)CC1(C)NCCNC1=O (centres undefined)
The melting point of the first is higher: 306 to 311 °C for the first, 79 to 82 °C for the second.

First: CCN1c2ncccc2C(=O)N(C)c2ccc(-c3cnn(C)c3)nc21
Second: CCOCc1nc2c(N)nc3cc(-c4cccnc4)ccc3c2n1CCNC(=O)C(C)C
The melting point of the first is lower: 65 to 67 °C for the first, 213 to 215 °C for the second.

Compared with `Cc1nc(C)c(CBr)nc1C`, `Cc1nc2c(s1)C(=O)C(C=O)CC2` (centres undefined) is higher in melting point: 41.2 to 44 °C for the first, 107 to 108 °C for the second.

First: CCCC(=O)NCC1Cc2cccc3cccc1c23 (centres undefined)
Second: CCNC(=O)Nc1nc2cc(-c3cccnc3)ccn2n1
The melting point of the first is lower: 111 °C for the first, 230 to 233 °C for the second.

Compared with `COC(=O)CCON1C(C)(C)CC(OC(=O)c2ccccc2C(=O)OC2CC(C)(C)N(OCCC(=O)OC)C(C)(C)C2)CC1(C)C`, `COC(=O)CCCNC(=O)C[C@H]1O[C@H](c2cccc(OC)c2OC)c2cc(Cl)ccc2N(CC(C)(C)C)C1=O` is lower in melting point: 117 to 118 °C for the first, 74 to 75 °C for the second.

First: CCCCc1ccc(N(Cc2ccc(N(C)C)cc2)C(=O)C2CCCc3c(O)cccc32)cc1 (centres undefined)
Second: Cc1ccc(-c2ccc3c(c2)C=C(C(=O)Nc2ccc(CN(C)C4CCOCC4)cc2)CCC3)cc1
The melting point of the first is lower: 138 °C for the first, 161 to 162 °C for the second.

First: Oc1ccc(Br)cc1C=Nc1cc(Cl)cc(Cl)c1
Second: CC(=O)Nc1ncc(Sc2ccc(O)cc2)s1
The melting point of the first is lower: 161 to 163 °C for the first, 265 to 267 °C for the second.

Compared with `CN(Cc1ccc(NC(=O)C2=Cc3cc(-c4ccc(C#N)cc4)ccc3S(=O)(=O)CC2)cc1)C1CCOCC1`, `COc1ccc(C(=O)N(C(=O)c2ccc(OC)cc2)c2nc3ccc(N(C)C)cc3c(NCc3cccs3)c2C#N)cc1` is lower in melting point: 233 to 236 °C for the first, 171 °C for the second.

Compared with `CCCCC(CC)COc1ccc2c(c1)C(=O)c1ccc(OCC(CC)CCCC)cc1C2=O` (centres undefined), `CCOC(=O)Cc1c(-c2ccc(OC)cc2)sc2c1c(=O)c(C(=O)OCC)cn2Cc1ccccc1F` is higher in melting point: 49 to 51 °C for the first, 199 to 201 °C for the second.

First: CC(=O)c1c(-c2ccc(Cl)cc2)c(-c2ccc(Cl)cc2)nn(CCC2OC(CO)C(O)C(O)C2O)c1=O (centres undefined)
Second: COC(=O)CCc1ccc(N2C(=O)CN(c3ccc(C(=N)NC(=O)OC)cc3)C2=O)cc1
The melting point of the first is lower: 96 to 122 °C for the first, 250 °C for the second.

First: COC(=O)NCC1CN(c2ccc(-n3cnc(Cn4ccnc4)c3)c(F)c2)C(=O)O1 (centres undefined)
Second: C[C@H](Nc1ncnc2[nH]cnc12)c1oc2ccccc2c(=O)c1-c1cccc(F)c1
The melting point of the first is lower: 78 to 80 °C for the first, 135 to 138 °C for the second.

Compared with `CS(=O)(=O)c1ccc(-c2ccccc2C=C2CCCCC2)cc1`, `CS(=O)(=O)c1ccc(C#CCF)cc1` is higher in melting point: 83 °C for the first, 97 to 99 °C for the second.

With `COc1ccc(F)cc1C(=O)NC1COc2cc(OC)c(S(N)(=O)=O)cc2C1` (centres undefined) the melting point was 209 to 210 °C.
